{"source": "patent US20170268027A1", "about": "“METHOD FOR SYNTHESIS OF FATTY ACIDS” (priority 2014, published 2017)", "key": {"[1]": {"test_system": "Yarrowia lipolytica JMY3501", "test": "Culture D: fed-batch culture of Y. lipolytica JMY3501 with cerulenin pulse (fatty acid profile)", "assay_type": "cell-based"}, "Y. lipolytica": {"test_system": "Y. lipolytica", "test": "preliminary dose studies of cerulenin on growth of Y. lipolytica", "assay_type": "cell-based, Yarrowia lipolytica", "conditions": "doses tested 1 to 25 mgcerulenin·gx^−1"}, "Candida lypolytica": {"test_system": "Candida lypolytica", "conditions": "cited from earlier work"}, "Yarrowia lipolytica W29": {"test_system": "Yarrowia lipolytica W29", "test": "Culture B: fed-batch culture of Y. lipolytica W29 under nitrogen limitation with cerulenin pulse (growth, fatty acid profile)", "assay_type": "cell-based", "parameters": "Length of the carbon chain: unit not given here"}, "[2]": {"conditions": "between injection and 3 h after injection"}, "[3]": {"conditions": "−2 h (before the pulse, baseline)"}}, "note": "Read-outs that look alike come from different tables or passages of the source.", "data": [{"smiles": "C/C=C/C/C=C/CCC(=O)[C@H]1O[C@H]1C(N)=O", "note": "[cerulenin]", "values": [{"measurement": "effect on accumulation of short-chain fatty acids", "setting": "[1]; 0.25 mgcerulenin·gx^−1, lipid accumulation phase", "value": "increase the accumulation of short-chain fatty acids"}, {"measurement": "C12 content in the fatty acid composition", "setting": "[1]; after pulse of 0.25 mgcerulenin·gx^−1 (4% before)", "value": 7, "unit": "%"}, {"measurement": "C14 content in the fatty acid composition", "setting": "[1]; after pulse of 0.25 mgcerulenin·gx^−1 (7% before)", "value": 14, "unit": "%"}, {"measurement": "dose that completely inhibits growth", "setting": "Y. lipolytica", "value": 15, "unit": "mgcerulenin·gx^−1"}, {"measurement": "effect on growth", "setting": "Candida lypolytica; substrate containing n-tetradecane to n-octadecane", "value": "without exerting any effect"}, {"measurement": "effect on growth", "setting": "Candida lypolytica; substrate containing n-undecane or n-dodecane", "value": "completely blocks the growth"}, {"measurement": "Degree of unsaturation", "setting": "Yarrowia lipolytica W29; 0 h (time of the pulse)", "value": 0.95}, {"measurement": "Length of the carbon chain", "setting": "Yarrowia lipolytica W29; 0 h (time of the pulse)", "value": 16.98}, {"measurement": "time of appearance of short-chain fatty acids after the pulse", "setting": "Yarrowia lipolytica W29; 7 mgcerulenin·gx^−1", "value": 15, "unit": "min"}, {"measurement": "culture time after which the effect of partial inhibition of elongation kinetics disappeared", "setting": "Yarrowia lipolytica W29; 7 mgcerulenin·gx^−1 pulse", "value": 9, "unit": "h"}, {"measurement": "increase of mass content of palmitic acid (C16:0) relative to before the pulse", "setting": "Yarrowia lipolytica W29; 3 h after pulse", "value": 0.014, "unit": "gAG·gx^−1"}, {"measurement": "increase of mass content of palmitoleic acid (C16:1) relative to before the pulse", "setting": "Yarrowia lipolytica W29; 3 h after pulse", "value": 0.023, "unit": "gAG·gx^−1"}, {"measurement": "Degree of unsaturation", "setting": "Yarrowia lipolytica W29; +15 min. after the pulse", "value": 0.92}, {"measurement": "Length of the carbon chain", "setting": "Yarrowia lipolytica W29; +15 min. after the pulse", "value": 16.83}, {"measurement": "Degree of unsaturation", "setting": "Yarrowia lipolytica W29; +1 h after the pulse", "value": 0.73}, {"measurement": "Length of the carbon chain", "setting": "Yarrowia lipolytica W29; +1 h after the pulse", "value": 16.3}, {"measurement": "Degree of unsaturation", "setting": "Yarrowia lipolytica W29; +3 h after the pulse", "value": 0.75}, {"measurement": "Length of the carbon chain", "setting": "Yarrowia lipolytica W29; +3 h after the pulse", "value": 15.3}, {"measurement": "accumulation of short-chain fatty acids", "setting": "Yarrowia lipolytica W29; after 3 h of culture after the pulse of 7 mgcerulenin·gx^−1", "value": 24.5, "unit": "%"}, {"measurement": "mass fraction of the fatty acid C18:3", "setting": "Yarrowia lipolytica W29; after the pulse", "value": 6, "unit": "%"}, {"measurement": "mass fraction F4,8 multiplied by", "setting": "Yarrowia lipolytica W29; at 3 h", "value": 70}, {"measurement": "mass fraction F9,12 multiplied by", "setting": "Yarrowia lipolytica W29; at 3 h", "value": 28}, {"measurement": "mass fraction F13,15 multiplied by", "setting": "Yarrowia lipolytica W29; at 3 h", "value": 15}, {"measurement": "factor of multiplication of the specific rate of synthesis of short-chain or medium-chain fatty acid", "setting": "Yarrowia lipolytica W29; before vs 3 h after the pulse", "value": 14}, {"measurement": "average degree of unsaturation of neo-synthesised fatty acids", "setting": "Yarrowia lipolytica W29; [2]", "value": 0.6}, {"measurement": "average number of carbon atoms of neo-synthesised fatty acids", "setting": "Yarrowia lipolytica W29; [2]", "value": 12.74, "unit": "carbon atoms"}, {"measurement": "effect on the growth dynamic of the yeast", "setting": "Yarrowia lipolytica W29; dose 7 μgcerulenin·mgx^−1, nitrogen limitation", "value": "no effect"}, {"measurement": "total fatty acids accumulated", "setting": "Yarrowia lipolytica W29; during the 10 h following the cerulenin pulse", "value": 3, "unit": "%"}, {"measurement": "variation of the growth rate", "setting": "Yarrowia lipolytica W29; during the 10 h following the first injection, 7 mgcerulenin·gx^−1", "value": "less than 5%"}, {"measurement": "specific speed of production of fatty acid", "setting": "Yarrowia lipolytica W29; following the addition of cerulenin (0.004 before)", "value": 0.0017, "unit": "gAG·gx·h^−1"}, {"measurement": "variation of mass content of fatty acids C4:0-C8:0 relative to before the pulse", "setting": "Yarrowia lipolytica W29; in 3 h", "value": 0.05, "unit": "gAG·gx^−1"}, {"measurement": "variation of mass content of fatty acids C9:0-C12:0 relative to before the pulse", "setting": "Yarrowia lipolytica W29; in 3 h", "value": 0.07, "unit": "gAG·gx^−1"}, {"measurement": "variation of mass content of fatty acids C13:0-C15:0 relative to before the pulse", "setting": "Yarrowia lipolytica W29; in 3 h", "value": 0.07, "unit": "gAG·gx^−1"}, {"measurement": "Degree of unsaturation", "setting": "Yarrowia lipolytica W29; [3]", "value": 0.97}, {"measurement": "Length of the carbon chain", "setting": "Yarrowia lipolytica W29; [3]", "value": 16.97}]}]}
